Assays:
PC-3 [1] = test: Cell cycle arrest in human PC3 cells assessed as accumulation at G2/M phase at 2.5 uM after 12 hrs by propidium iodide staining based flow cytometry (reference value: 22.4 %); format: functional
PC-3 [2] = test: Cell cycle arrest in human PC3 cells assessed as accumulation at sub G1 phase at 5 uM after 12 hrs by propidium iodide staining based flow cytometry (reference value: 1.6 %); format: functional
PC-3 [3] = test: Induction of apoptosis in human PC3 cells assessed as decrease in pro-caspase 3 level measured after 24 hrs by Western blot method; format: functional, cell-based
PC-3 [4] = test: Cell cycle arrest in human PC3 cells assessed as accumulation at G0/G1 phase at 2.5 uM after 24 hrs by propidium iodide staining based flow cytometry (reference value: 63.9 %); format: functional
PC-3 [5] = test: Cell cycle arrest in human PC3 cells assessed as accumulation at G0/G1 phase at 5 uM after 24 hrs by propidium iodide staining based flow cytometry (reference value: 63.9 %); format: functional
PC-3 [6] = test: Cell cycle arrest in human PC3 cells assessed as accumulation at sub G1 phase at 1 uM after 24 hrs by propidium iodide staining based flow cytometry (reference value: 1.9 %); format: functional
PC-3 [7] = test: Cell cycle arrest in human PC3 cells assessed as accumulation at sub G1 phase at 5 uM after 24 hrs by propidium iodide staining based flow cytometry (reference value: 1.9 %); format: functional
[8] = biological target: T1, Peptidyl-prolyl cis-trans isomerase NIMA-interacting 1 (Homo sapiens, UniProt Q13526); test: Inhibition of Pin1 in human PC3 cells assessed as downregulation of cyclin D1 expression measured after 24 hrs by Western blot method; format: cell-based
PC-3 [9] = test: Induction of apoptosis in human PC3 cells assessed as induction of NOXA expression measured after 24 hrs by Western blot method; format: functional, cell-based
PC-3 [10] = test: Induction of apoptosis in human PC3 cells assessed as decrease in pro-caspase 8 level measured after 24 hrs by Western blot method; format: functional, cell-based
PC-3 [11] = test: Cell cycle arrest in human PC3 cells assessed as accumulation at G2/M phase at 1 uM after 24 hrs by propidium iodide staining based flow cytometry (reference value: 22.7 %); format: functional
PC-3 [12] = test: Cell cycle arrest in human PC3 cells assessed as accumulation at G2/M phase at 2.5 uM after 24 hrs by propidium iodide staining based flow cytometry (reference value: 22.7 %); format: functional
PC-3 [13] = test: Cell cycle arrest in human PC3 cells assessed as accumulation at G2/M phase at 5 uM after 24 hrs by propidium iodide staining based flow cytometry (reference value: 22.7 %); format: functional
PC-3 [14] = test: Induction of apoptosis in human PC3 cells assessed as decrease in pro-caspase 9 level measured after 24 hrs by Western blot method; format: functional, cell-based
[15] = biological target: T1, Peptidyl-prolyl cis-trans isomerase NIMA-interacting 1; test: Inhibition of Pin1 (unknown origin) using Suc-Ala-Glu-cis-Pro-Phe-4-nitroanilide as substrate preincubated for 30 mins followed by substrate addition measured for 90 secs by protease-enzyme coupled assay
PC-3 [16] = test: Cell cycle arrest in human PC3 cells assessed as accumulation at G0/G1 phase at 2.5 uM after 12 hrs by propidium iodide staining based flow cytometry (reference value: 65.6 %); format: functional
LNCaP = test: Anti-proliferative activity against human LNCAP cells measured after 96 hrs by MTT assay; format: functional
PC-3 [17] = test: Cell cycle arrest in human PC3 cells assessed as accumulation at G0/G1 phase at 1 uM after 24 hrs by propidium iodide staining based flow cytometry (reference value: 63.9 %); format: functional
PC-3 [18] = test: Cell cycle arrest in human PC3 cells assessed as accumulation at G2/M phase at 5 uM after 12 hrs by propidium iodide staining based flow cytometry (reference value: 22.4 %); format: functional
PC-3 [19] = test: Cell cycle arrest in human PC3 cells assessed as accumulation at sub G1 phase at 2.5 uM after 24 hrs by propidium iodide staining based flow cytometry (reference value: 1.9 %); format: functional
PC-3 [20] = test: Cell cycle arrest in human PC3 cells assessed as accumulation at sub G1 phase at 2.5 uM after 12 hrs by propidium iodide staining based flow cytometry (reference value: 1.6 %); format: functional
PC-3 [21] = test: Cell cycle arrest in human PC3 cells assessed as accumulation at G0/G1 phase at 5 uM after 12 hrs by propidium iodide staining based flow cytometry (reference value: 65.6 %); format: functional
PC-3 [22] = test: Cell cycle arrest in human PC3 cells assessed as accumulation at sub G1 phase at 1 uM after 12 hrs by propidium iodide staining based flow cytometry (reference value: 1.6 %); format: functional
PC-3 [23] = test: Cell cycle arrest in human PC3 cells assessed as accumulation at G0/G1 phase at 1 uM after 12 hrs by propidium iodide staining based flow cytometry (reference value: 65.6 %); format: functional
PC-3 [24] = test: Induction of apoptosis in human PC3 cells assessed as downregulation of c-FLIP expression measured after 24 hrs by Western blot method; format: functional, cell-based
PC-3 [25] = test: Cell cycle arrest in human PC3 cells assessed as accumulation at G2/M phase at 1 uM after 12 hrs by propidium iodide staining based flow cytometry (reference value: 22.4 %); format: functional
PC-3 [26] = test: Anti-proliferative activity against human PC3 cells measured after 96 hrs by MTT assay; format: functional; details: PC-3, 96 h
PC-3 [27] = test: Induction of apoptosis in human PC3 cells assessed as downregulation of Mcl-1 expression measured after 24 hrs by Western blot method; format: functional, cell-based

T1 sequence (Q13526 whole entry): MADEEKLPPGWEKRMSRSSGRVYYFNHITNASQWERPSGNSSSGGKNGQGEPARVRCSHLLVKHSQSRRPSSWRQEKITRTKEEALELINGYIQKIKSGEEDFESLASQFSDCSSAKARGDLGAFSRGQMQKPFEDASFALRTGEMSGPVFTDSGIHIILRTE

SMILES: C[C@H]1[C@H](C)CC[C@]2(C)CC[C@]3(C)C(=CC(=O)[C@@H]4[C@@]5(C)C=C(C#N)C(=O)[C@](C)(C(=O)N6CCNCC6)[C@@H]5CC[C@]43C)[C@H]12
- Activity (PC-3 [1]): 27.6%
- Activity (PC-3 [2]): 19.5%
- Activity (PC-3 [3]): Dose-dependent effect
- Activity (PC-3 [4]): 33.7%
- Activity (PC-3 [5]): 3.7%
- Activity (PC-3 [6]): 8%
- Activity (PC-3 [7]): 88.1%
- inhibition [8]: Dose-dependent effect
- Activity (PC-3 [9]): Dose-dependent effect
- Activity (PC-3 [10]): Dose-dependent effect
- Activity (PC-3 [11]): 29.7%
- Activity (PC-3 [12]): 22%
- Activity (PC-3 [13]): 1.8%
- Activity (PC-3 [14]): Dose-dependent effect
- IC50 [15]: 3.57 µM
- Activity (PC-3 [16]): 52.2%
- GI50 (LNCaP): 0.27 µM
- Activity (PC-3 [17]): 45.4%
- Activity (PC-3 [18]): 22.8%
- Activity (PC-3 [19]): 34.6%
- Activity (PC-3 [20]): 10.2%
- Activity (PC-3 [21]): 47.8%
- Activity (PC-3 [22]): 2.7%
- Activity (PC-3 [23]): 58.5%
- Activity (PC-3 [24]): Dose-dependent effect
- Activity (PC-3 [25]): 26.1%
- GI50 (PC-3 [26]): 0.04 µM
- Activity (PC-3 [27]): Dose-dependent effect

— ChEMBL document CHEMBL4000186, “Design and synthesis of novel 2-substituted 11-keto-boswellic acid heterocyclic derivatives as anti-prostate cancer agents with Pin1 inhibition ability” (Eur J Med Chem, 2017)
